Experimental findings from patent US20240358818A1, “ANTIBODY-INDUCING POLYPEPTIDE AND VACCINE” (priority 2021, published 2024) are described below.

One test deals with S2 protein of SARS-COV-2 (Severe acute respiratory syndrome coronavirus 2, UniProt P0DTC2).
For test [1], the system named is IgG in serum samples of patients recovered from SARS-COV-2 infection. Format: binding, human.
Test [2] deals with RBD protein of SARS-COV-2 (Severe acute respiratory syndrome coronavirus 2, UniProt P0DTC2).
Test [3] deals with binding between ACE2 and RBD (Severe acute respiratory syndrome coronavirus 2, UniProt P0DTC2). The note with it: for inhibition of the binding between ACE2 and RBD: serum of mice sensitized with conjugate, FIG. 2, FIG. 3(A).

No end group written: not given here.

For ASVVNIQKEIDRLNEVAKNL [#114], on S2 protein of SARS-COV-2, the “S2 recognizing ability of mouse serum IgG” value was “high”. Further, the “reaction with antibodies in serum samples obtained from the 5 patients” value in test [1] is given as “strongly react”.
For “DRLNEVAKNLNESLIDLQE (also: conjugate) [#115]” the same measures were “high” and “strongly react”.
For “ELDSFKEELDKYFKNHTS (also: conjugate) [#111]” the same measures were “high” and “strongly react”.
As for EVRQIAPGQTGKIADYNYKLPD [#8], the “RBD recognition ability of mouse serum IgG” value (“RBD recognition ability” for short) in test [2] is reported as “high”.
With NATRFASVYAWNRKRISNC [#3], the “inhibition of the binding between ACE2 and RBD” value in test [3] is “inhibit the binding between ACE2 and RBD”. Besides, in test [2], the “RBD recognition ability” value was “high”.
In the case of SNLKPFERDISTEIYQAGSTPC [#11], the “inhibitory ability on ACE2-RBD binding compared with positive control” value in test [3] (mouse serum diluted to 100-fold, positive control mouse anti-RBD polyclonal antibody, FIG. 2) is listed as “equivalent to that of the positive control”. The “inhibitory effects on ACE2-RBD binding compared with serum of recovered patients” value in test [3] (versus the 4 patients other than patient A, FIG. 3(B)) is given as “substantially equivalent”. In addition, the “RBD recognition ability” value in test [2] was “high”.
As for YGVSPTKLNDLCF (also: conjugate) [#5], in test [3], the “inhibition of the binding between ACE2 and RBD” value is “substantially no inhibitory activity was observed”. For the same sequence, the “RBD recognition ability” value in test [2] is on record as “without the RBD protein recognizing ability”.
